Legend:
[1] = test system: hES cells of the H1 or H9 line being cultured as embryoid bodies
[2] = test system: Undifferentiated hES cells of the H7 line; test: Direct differentiation of plated hES cells to contracting cardiomyocytes; format: cell-based, human; conditions: 10 μM at day 10-12 or 12-14; no embryoid body stage
Description: Cardiomyocyte differentiation was also achieved in a direct differentiation paradigm. Undifferentiated hES cells of the H7 line were dissociated and plated directly onto gelatin-coated plates without going through an embryoid body stage. The plated cells were cultured in differentiation medium (80% KO-DMEM, 1 mM L-glutamine, 0.1 mM β-mercaptoethanol, 1% amino acids, and 20% fetal bovine serum). Contracting cardiomyocytes were found at day 18 in cultures treated with 10 μM 5-aza-deoxy-cytidine at day 10-12 or 12-14, and at later times in all cultures.

[3] = test system: cardiomyogenic cell line developed from bone marrow stroma; conditions: treated for 24 hours; cited from earlier work
[4] = test system: hES-derived cardiomyocytes; test: Pharmacological response: contraction rate of beating areas of hES-derived cardiomyocytes; format: cell-based, human; conditions: for chronotropic effect: FIG. 5 Panels B to E
Description: EBs were plated on to gelatin-coated 24-well plates and allowed to differentiate, as in Example 2. Contracting cardiomyocytes at differentiation day 15-21 were used for examining pharmacological response. The frequency of the spontaneous beating was measured by counting the contraction rate of the beating areas maintained in the differentiation medium in a 37° C. heating chamber of an inverted microscope. The cells were then incubated with test compounds in the incubator for 20-30 min, and observed for contraction rate. Dose-dependent effects were determined by cumulatively applying of increasing concentrations of each substrate. Data represent the mean pulsation rate±standard error of the mean measured on 10-20 beating areas.
Differentiated cells were incubated with various concentrations of the drug and the number of beats per minute was counted. The cells were then washed with medium, maintained in differentiation medium for 24 h and observed for the time taken to recover contractility.

In the case of `Nc1ncn([C@H]2C[C@H](O)[C@@H](CO)O2)c(=O)n1` [5-aza-deoxy-cytidine], the “proportion of beating areas in the culture” value ([1]; 1 to 10 μM at day 6-8) is reported as “increased”, the “expression of cardiac α-MHC (ratio of αMHC to 18S RNA)” value ([1]; 1 to 10 μM at day 6-8, harvested at day 15) is reported as “significantly increased” and the “day at which contracting cardiomyocytes were found” value [2] is reported as 18 days.
In the case of `Nc1ncn([C@@H]2O[C@H](CO)[C@@H](O)[C@H]2O)c(=O)n1` [5-azacytidine], the “cells forming myotube-like structures, acquiring cardiomyocyte markers and beginning to beat” value [3] is listed as 30%.
With `C[S+](C)[O-]` [DMSO, dimethyl sulfoxide] the “toxicity to the cells” value [1] was “toxic”, the “beating areas compared with non-treated cultures” value ([1]; 0.5% from days 0-4) was “fewer” and the beating cells ([1]; 0.8% or 1%) was “absent”. For the same molecule, the “α-MHC expression compared with untreated cultures” value ([1]; DMSO treatment) was “significant reduction”.
For `CC1=C(/C=C/C(C)=C/C=C/C(C)=C/C(=O)O)C(C)(C)CCC1` [RA, all-trans retinoic acid], the “toxicity to the cells” value [1] was “toxic” and the “beating cells compared with untreated cultures” value ([1]; doses between 10^−9 and 10^−5 M, at days 4-8, 8-15, or 4-15) was “no increase”.
In the case of `CC(C)(C)NCC(O)c1cc(Cl)c(N)c(Cl)c1` (stereo not shown) [clenbuterol], the “beating rate after treatment” value ([4]; 1-10 nM, cells taken at Day 72, from about 72 beats/min, p<0.005) is reported as “about 98 beats/min”.
For `COc1ccc([C@@H]2Sc3ccccc3N(CCN(C)C)C(=O)[C@@H]2OC(C)=O)cc1` [diltiazem], the “beating areas that stopped contraction” value ([4]; 10^−5 M) was 100%, the “time until contraction recovered to normal levels after removal of the drug” value ([4]; cells washed and kept in differentiation medium) was 24 to 48 h and the beating rate ([4]; various concentrations, incubated 20-30 min, differentiation day 15-21, FIG. 5 Panel A) was “inhibited”.
In the case of `CC(C)NCC(O)c1ccc(O)c(O)c1` (stereo not shown) [isoprenaline], the chronotropic effect [4] is reported as “positive chronotropic effects”.
In the case of `CNC[C@H](O)c1cccc(O)c1` [phenylephrine], the chronotropic effect [4] is reported as “positive chronotropic effects”.
